According to patent US20260193294A1, “POLYPEPTIDE INHIBITOR, AND PREPARATION METHOD THEREFOR AND USE THEREOF” (SHANGHAI HANSOH BIOMEDICAL CO., LTD., priority 2022, published 2026):
Blank lines part the entries; values can stand above or below the compound they belong to. Positions of bridges follow the written chain, without caps; N, C: chain ends. Non-standard residues stand in square brackets, D forms with d. Residues, ends and D or L forms follow the SMILES beside them. *: point of attachment. X1 = CN(CCNC(=O)CCOCCOCC[N+](C)(C)CCNC(=O)COCCOCCNC(=O)COCCOCCNC(=O)CC[C@H](NC(=O)CCCCCCCCCCCCCCC(=O)O)C(=O)O)*; Trp(7-Me) = Cc1cccc2c(C[C@H](N)C(=O)O)c[nH]c12; 2Nal = N[C@@H](Cc1ccc2ccccc2c1)C(=O)O; AEF = NCCOc1ccc(C[C@H](N)C(=O)O)cc1; 3Pal = N[C@@H](Cc1cccnc1)C(=O)O; Pen = CC(C)(S)[C@H](N)C(=O)O; Thp = NC1(C(=O)O)CCOCC1; Sar = CNCC(=O)O

Tests used:
[1] = tested on: IL23-induced rat otitis model; assay: In vivo pharmacodynamics in IL23-induced rat otitis model (ear thickening); parameters: species or system SD rats; conditions: 10 mg/kg, gavage
Source text: To evaluate the in vivo efficacy of the compounds in an IL23-induced rat otitis model.
SD rats, 6-8 weeks old, male, purchased from Jiangsu GemPharmatech Co., Ltd.
• a. […]

[2] = Pharmacokinetic determination in rats (IV); conditions: male, SD, rat, plasma, 1 mg/kg
Method: (§11) SD rats were used as test animals to study the pharmacokinetic behavior of the compounds of the examples in the rats (plasma) after oral or IV administration.
Preparation of intravenous drug: PBS
(§12) The compounds of the examples were weighed and dissolved in this solution, vortexed, ultrasonicated for 5 min, and filtered through a 0.22 μm filter membrane to obtain colorless clear solutions with a concentration of 0.2 mg/mL.
(§13) 3 SD rats/group, male were fasted overnight and then respectively administered IV at a dose of 1 mg/kg and a volume of 5 mL/kg.
(§14) • Before administration and at 0.083 h, 0.25 h, 0.5 h, 1.0 h, 2.0 h, 4.0 h, 6.0 h, 8.0 h, and 24.0 h after administration (IV), 0.2 mL of blood was collected from the jugular vein, placed in an EDTA-2K test tube, and centrifuged at 6000 rpm for 6 min at 4° C. to separate plasma, which was stored at −20° C.; and the rats were fed 4 h after administration.
(§15) 1) Acetonitrile (200 μL) was added to the plasma sample (50 μL) for precipitation, and the mixture was mixed and centrifuged at 4500 rpm for 15 min.
(§16) 2) The treated supernatant solution was taken and subjected to LC/MS/MS to analyze the concentrations of the test compounds. LC/MS/MS analysis instrument: AB Sciex Triple Quad 6500+.
(§17) • Liquid phase conditions: Shimadzu LC-30AD pump • Chromatographic column: HALO 90A PFP 2.7 μm 2.1×30 mm, mobile phase: liquid A: 5% acetonitrile aqueous solution (0.1% formic acid), and liquid B: an aqueous solution of 95% acetonitrile (0.1% formic acid) • Flow rate: 0.6 mL/min • Elution time: 0-2.0 min, the eluent was as follows:
(§18) The main pharmacokinetic parameters were calculated using WinNonlin 8.1.

[3] = Pharmacokinetic determination in beagle dogs (IV); conditions: male, dog, plasma, 0.2 mg/kg
Method: Beagle dogs were used as test animals to study the pharmacokinetic behavior of the compounds of the examples in the rats (plasma) after IV administration.
3 beagle dogs/group, male, from Yizheng Anlimao Biotechnology Co., Ltd.
The compounds of the examples were weighed and dissolved in this solution, vortexed, ultrasonicated for 5 min, and filtered through a 0.22 μm filter membrane to obtain colorless clear solutions with a concentration of 0.1 mg/mL.
3 beagle dogs/group, male were fasted overnight and then respectively administered IV at a dose of 0.2 mg/kg and a volume of 2 mL/kg.
1) Acetonitrile (200 μL) was added to the plasma sample (50 L) for precipitation, and the mixture was mixed and centrifuged at 4500 rpm for 15 min.
as §16
Premier Peptide CSH C18 130A 1.7 μm 2.1*100 mm Column, mobile phase: liquid A: 5% acetonitrile aqueous solution (0.1% formic acid), and liquid B: an aqueous solution of 95% acetonitrile (0.1% formic acid) • Flow rate: 0.6 mL/min • Elution time: 0-2.0 min, the eluent was as follows:
as §18

[4] = tested on: activation of STAT3 phosphorylation by hIL23 in DB cells; assay: Blocking the activation of STAT3 phosphorylation by hIL23 in DB cells (p-STAT3 ELISA); format: cell-based, Human; conditions: DB cells stimulated by rhIL-23 0.5 nM, half an hour; read-out: pStat3 IC50
Method: To determine the inhibitory activity of the compounds of the present disclosure on the activation of STAT3 phosphorylation by hIL23 in DB cells
The compounds produced above were added to DB (ATCC Cat #CRL-2289) cells to inhibit the signal transduction of rhIL-23 cytokine. The screening of compounds was carried out by a multi-well plate (suitable for ELISA assay). Generally, in the presence of some of the above compounds of the present disclosure, 6.25×10^6 cells/ml of DB cells were stimulated by rhIL-23 (0.5 nM, R&D SYSTEMS) in RPMI medium (Invitrogen) containing 10% of FBS, and after half an hour, lysis was carried out on ice using 50 μL of 2×lysis buffer (CST). The content of p-STAT3 in the lysate was determined by PathScan Phospho-Stat3 (Tyr705) Sandwich ELISA Kit (CST Cat #7300C), so as to calculate the activity of the compounds of the present disclosure in blocking rhIL23 signal transduction in DB cells.
The inhibition rate was calculated as follows: […]
By using log (inhibitor) vs. response—Variable slope (four parameters) in Graphpad, the data of ELISA experiment results were subjected to non-linear regression fitting to fit a curve and obtain the IC50 value.

[5] = Stability in plasma (human); format: in vitro ADME; conditions: human, plasma
Method: (§1) To study the stability of the compounds of the examples in the plasmas of mice, rats, dogs and humans.
(§2) Preparation of plasma: Animal or human whole blood was collected, then put into a test tube containing an anticoagulant, and centrifuged at 3500 rpm for 10 min, and the upper pale yellow plasma was collected; • working solution of 10 μM test compound: a stock solution was prepared with DMSO, and the working solution was prepared with 100 mM phosphate buffer; • working solution of 10 μM positive control: • procaine: 2.36 mg of procaine was weighed and diluted into a 10 mM stock solution with 1 mL of DMSO. 10 μL of the 10 mM stock solution was pipetted into 1 mL of 100 mM phosphate buffer, such that the final concentration was 100 μM; and • enalapril: 4.93 mg of enalapril was weighed and diluted into a 10 mM stock solution with 1 mL of DMSO; and 10 μL of the 10 mM stock solution was pipetted into 1 mL of 100 mM phosphate buffer, such that the final concentration was 100 μM.
(§3) In a 96-well plate, 285 μL of plasma and 15 μL of 10 μM compound (test compound, and positive control) were successively added and incubated at 37° C.
(§4) 40 μL was taken at 0, 15, 30, 60, 90, and 120 min (sampling points could be fine-tuned), respectively, and 160 μL of an acetonitrile stop solution containing an internal standard was added.
(§5) After centrifugation (3500 rpm, 10 min), 50 μL of the supernatant was taken, diluted by adding 50 μL of DDH2O, and then injected for LC-MS/MS.
(§6) • Instrument: Shimadzu LC-20 AD • Chromatographic column: Phenomenex Gemiu® C18 (50*4.6 mm, 5 μm particle size) • Mobile phase: A: acetonitrile, B: 0.1% formic acid solution • Elution gradient: […]: 5% A→95% A, 2.0-2.1 min: […] • Flow rate: 0.8 mL/min • Run time: 5.0 min • Injection volume: 5 μL
(§7) • Instrument: API4000 liquid chromatography mass spectrometer, AB, US • Ion source: electrospray ionization source (ESI) • Drying gas: N2, temperature 500° C. • Electrospray voltage: 5500V • Detection mode: positive ion detection • Scan mode: multi reaction monitoring (MRM) mode • Scan time: 0.1 s
(§8) All calculations were carried out using Microsoft Excel. The peak area ratio was determined by an extracted ion chromatogram.
(§9) The residual percentage of the compound at each time point was calculated by the following equation: Residual percentage at t hours (%)=peak area ratio at t hours/peak area ratio at 0 hour×100%, in which the peak area ratio at t hr was the peak area ratio of the […] at t min; and • the slope value k was determined by linear regression on the natural logarithm of the curve of the residual percentage of the parent drug versus the incubation time.
(§10) In vitro half-life (in vitro t1/2) was determined by the slope value: […]

[6] = in vitro; format: in vitro ADME; conditions: plasma
Method: as §1, §2, §3, §4, §5, §6, §7, §8, §9, §10

[7] = in vivo; conditions: male, SD, rat, iv, 1 mg/kg
Method: as §11
Preparation of intravenous drug: PBS
as §12, §13, §14, §15, §16, §17, §18

AUC(0-inf) [2]: 2670 ng·h/mL
AUC(0-t) [2]: 2620 ng·h/mL
C0 [2]: 4290 ng/mL
MRT [2]: 0.9 h
clearance [2]: 6.2 mL/min/kg
half-life [2]: 0.7 h
AUC(0-inf) [3]: 2030 ng·h/mL
AUC(0-t) [3]: 2020 ng·h/mL
C0 [3]: 1250 ng/mL
MRT [3]: 3.1 h
clearance [3]: 1.68 mL/min/kg
half-life [3]: 4.1 h
SMILES: CC(=O)NCCCC[C@@H]1NC(=O)[C@H](Cc2c[nH]c3c(C)cccc23)NC(=O)[C@H]([C@@H](C)O)NC(=O)[C@H](CC(N)=O)NC(=O)[C@@H](NC(C)=O)C(C)(C)SSC(C)(C)[C@@H](C(=O)N[C@@H](Cc2ccc(OCCN)cc2)C(=O)N[C@@H](Cc2ccc3ccccc3c2)C(=O)NC2(C(=O)N[C@@H](CCC(=O)O)C(=O)N[C@@H](CC(N)=O)C(=O)N[C@@H](Cc3cccnc3)C(=O)N(C)CC(N)=O)CCOCC2)NC1=O [PN-235, reference compound] (Ac-[Pen]NT[Trp(7-Me)]K(Ac)[Pen][AEF][2Nal][Thp]EN[3Pal][Sar]-NH2; disulfide 1-6 (inferred); N-terminus and C-terminus assumed)
Inhibition rate on Day 4 (ear thickening) ([1]; BID): 55.35%

SMILES: CC(=O)NCCCC[C@@H]1NC(=O)[C@H](Cc2c[nH]c3c(C)cccc23)NC(=O)[C@H]([C@@H](C)O)NC(=O)[C@H](CC(N)=O)NC(=O)[C@@H](NC(C)=O)C(C)(C)SSC(C)(C)[C@@H](C(=O)N[C@@H](Cc2ccc(OCCN)cc2)C(=O)N[C@@H](Cc2ccc3ccccc3c2)C(=O)NC2(C(=O)N[C@@H](CCC(=O)O)C(=O)N[C@@H](CC(N)=O)C(=O)N[C@@H](Cc3cccnc3)C(=O)N(C)CCNC(=O)CCOCCOCC[N+](C)(C)CCNC(=O)COCCOCCNC(=O)COCCOCCNC(=O)CC[C@H](NC(=O)CCCCCCCCCCCCCCC(=O)O)C(=O)O)CCOCC2)NC1=O [Example 1] (Ac-[Pen]NT[Trp(7-Me)]K(Ac)[Pen][AEF][2Nal][Thp]EN[3Pal]-X1; disulfide 1-6)
IC50 [4]: 0.025 nM
half-life at 0.5 μM [5]: 64.6 h
remaining at 4 h, 0.5 µM [5]: 94.3%
half-life at 0.5 μM ([6]; dog): 148 h
remaining at 4 h, 0.5 µM ([6]; dog): 99.7%
half-life at 0.5 μM ([6]; mouse): 32 h
remaining at 4 h, 0.5 µM ([6]; mouse): 93.8%
half-life at 0.5 μM ([6]; rat): 75.7 h
remaining at 4 h, 0.5 µM ([6]; rat): 98.7%
Inhibition rate on Day 4 (ear thickening) ([1]; QD): 51.22%
half-life [7]: 4.9 h
AUC(0-inf) [2]: 46700 ng·h/mL
AUC(0-t) [2]: 45400 ng·h/mL
C0 [2]: 10300 ng/mL
MRT [2]: 6.1 h
clearance [2]: 0.35 mL/min/kg
